Patent US9260375B2, “Metallo-β-lactamase inhibitors” (priority 2005, dated 2016)

How the values were obtained:
[1] = test system: IMP-1 producing Pseudomonas aeruginosa strain PAO1/pMS363; assay type: cell-based; details: no inhibitor, in µg/mL
Text: IMP-1 producing Pseudomonas aeruginosa strain PAO1/pMS363 (FEMS Microbiology Letters 1994, 121, 175) was used for evaluating the inhibitory effect of maleic acid derivatives on the resistance against carbapenem by the metallo-β-lactamase in bacteria.

IMP-1 = target: T1, IMP-1 (Serratia marcescens, UniProt P52699); assay: biochemical; details: nitrocefin 100 μM, IMP-1 1 nM, ZnSO4 100 μM, 50 mM HEPES pH 7.5, room temperature 20 min; read-out: IC50 of each inhibitor against IMP-1
T1 construct: The total length of IMP-1 as a metallo-β-lactamase was amplified by PCR; His tag (C); made in house; host or cells: E. coli DH5α, pTrcHis2 TOPO vector, periplasmic fraction
Protocol: (§1) The PCR product was integrated into pTrcHis2 TOPO vector (Invitrogen), and then introduced into E. coli DH5α (TOYOBO) for culture under the induction of 0.5 mM Isopropyl-β-D-(−)-thiogalactopyranoside (Wako) at 37° C. for 3 h to express IMP-1. After recovering the bacterial cells, the periplasmic fraction was extracted by ocmotic shock with sucrose to refine the IMP-1 by Ni-NTA Slurry (QIAGEN) with the His tag at the C-terminus.
(§2) In order to determine the inhibitory activity of metallo-β-lactamase, a 50 mM HEPES (pH 7.5) buffer (referred to hereinafter as “buffer”) was used, and nitrocefin (Oxoid) with the final concentration of 100 μM was used as a substrate. A test drug (material to be tested: compound having an Example Number shown in Table 2) was added to each well of a 96-well plate, into which nitrocefin was added and mixed. Then, IMP-1 or VIM-2 was added to each well in the final concentration of 1 nM or 1.5 nM, respectively to react the mixture at room temperature for 20 min. In this case, ZnSO4 was added in the final concentration of 100 μM in order to exclude the inhibitory effect by the chelate effect. Enzyme inhibiting activity was determined by measuring the hydrolysis activity of nitrocefin at a wave length of 490 nm with ARVOsx microplate reader (Wallac).

VIM-2 = target: T2, VIM-2 (UniProt Q5U7L7); assay: biochemical; details: nitrocefin 100 μM, VIM-2 1.5 nM, ZnSO4 100 μM, 50 mM HEPES pH 7.5, room temperature 20 min; read-out: IC50 of each inhibitor against VIM-2
T2 construct: His tag (C); made in house; host or cells: E. coli DH5α
Protocol: as §1, §2

T1 sequence (P52699 19-246 limits assumed): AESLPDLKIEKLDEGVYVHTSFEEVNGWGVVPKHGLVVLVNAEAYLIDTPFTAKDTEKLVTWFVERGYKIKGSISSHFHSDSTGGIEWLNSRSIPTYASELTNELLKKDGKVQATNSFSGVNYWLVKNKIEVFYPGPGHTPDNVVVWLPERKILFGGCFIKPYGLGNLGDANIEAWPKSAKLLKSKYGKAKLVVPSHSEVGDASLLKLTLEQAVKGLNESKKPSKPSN

IC50 (IMP-1) [nM]	IC50 (VIM-2) [nM]	SMILES	MIC of β-lactam drugs, β-lactam alone [1]
560	1900	CC(C)/C(C(=O)O)=C(\Cc1ccc(O)cc1)C(=O)O [Example 86, 2-(4-Oxidobenzyl)-3-isopropylmaleic acid trisodium]	
1400	600	CC(C)/C(C(=O)O)=C(\Cc1ccc(C(N)=O)cc1)C(=O)O [Example 72, 2-(4-Carbamoylbenzyl)-3-isopropylmaleic acid disodium]	
1200	14000	CC/C(C(=O)O)=C(\SC(C)C)C(=O)O [Example 66, 3-Ethyl-2-isopropylthiomaleic acid disodium]	
2800	5300	CC(C)/C(C(=O)O)=C(\Cc1cccnc1)C(=O)O [Example 54, 2-Isopropyl-3-[(pyridine-3-yl)methyl]maleic acid disodium]	
980	300	CC(C)/C(C(=O)O)=C(\Cc1ccc(OCCN)cc1)C(=O)O [Example 92, 2-[4-(2-aminoethoxy)benzyl]-3-isopropylmaleic acid disodium]	
190	160	CC(C)/C(C(=O)O)=C(/C(=O)O)C1CCCCC1 [Example 43, 2-Cyclohexyl-3-isopropylmaleic acid disodium]	
1900	1800	CC(C)/C(C(=O)O)=C(/C(=O)O)C1CCOCC1 [Example 51, 3-Isopropyl-2-(tetrahydropyran-4-yl)maleic acid disodium]	

The remaining lines, values behind:

SMILES	IC50 (IMP-1) [nM]	IC50 (VIM-2) [nM]	MIC of β-lactam drugs, β-lactam alone [1]
CO/N=C(\C(=O)N[C@@H]1C(=O)N2C(C(=O)[O-])=C(C[N+]3(C)CCCC3)CS[C@H]12)c1csc(N)n1 [CFPM, cefepime]			2048
C[C@@H](O)[C@H]1C(=O)N2C(C(=O)[O-])=C(SC3Cn4cnc[n+]4C3)[C@H](C)[C@H]12 (stereo partly shown) [BIPM, biapenem]			64-128
CC(C)(O/N=C(\C(=O)N[C@@H]1C(=O)N2C(C(=O)[O-])=C(C[n+]3ccccc3)CS[C@H]12)c1csc(N)n1)C(=O)O [CAZ, ceftadizime]			2048
C[C@@H](O)[C@H]1C(=O)N2C(C(=O)O)=C(SCCN=CN)C[C@H]12 [IPM, imipenem]			128-256
C/C(C(=O)O)=C(/C(=O)O)C(C)C [Example 22, 2-isopropyl-3-methylmaleic acid disodium]	2400	7300	
CO/N=C(\C(=O)N[C@@H]1C(=O)N2C(C(=O)O)=C(CSc3nc(=O)c(=O)[nH]n3C)CS[C@H]12)c1csc(N)n1 [CTRX, ceftriaxone]			4096
C[C@@H](O)[C@H]1C(=O)N2C(C(=O)O)=C(S[C@@H]3CN[C@H](CNS(N)(=O)=O)C3)[C@H](C)[C@H]12 [DRPM, doripenem]			128
CC/C(C(=O)O)=C(\Cc1ccccc1)C(=O)O [Example 11, 2-benzyl-3-ethylmaleic acid disodium]	290	3000	
C[C@@H](O)[C@H]1C(=O)N2C(C(=O)O)=C(S[C@H]3C[C@@H](C(=O)N4CC[C@H](NC(=O)CNC(=N)N)C4)N(C)C3)[C@H](C)[C@H]12 [CS-023, (−)-(4R,5S,6S)-3-[[(3S,5S)-5-[(S)-3-(2-guanidinoacetylamino)pyrrolidin-1-ylcarbonyl]-1-methylpyrrolidin-3-yl]thio]-6-[(R)-1-hydroxyethyl]-4-methyl-7-oxo-azabicyclo[3.2.0]hept-2-ene-2-carboxylic acid]			256
